Common to all, as to assay type: in vivo, mouse
Assay [1] deals with 60% high fat fed NZO or DIO mice. Description: Body weight gain and visceral fat in high fat fed mice. The method, then: Twenty NZO and DIO/B6 female mice were maintained on a high fat diet consisted of 60% kcal fat, 20% kcal protein and 20% kcal carbohydrate, with a total energy mass of 5.24 kcal/gm (D12492, Research Diets Inc.; […] Tacrolimus (Prograf (5 mg/ml), Astellas) was administered subcutaneously in a dose of 0.1 mg/kg q2d in 0.2 ml saline for three weeks to the obese and glucose intolerant NZO and DIO mice starting at the age of 10 weeks after which animals were mated to males of the same strain and pregnancy was dated from the morning of the positive detection of vaginal (copulation) plug. See FIG. 2. Facial (mandibular) venous blood samples were collected from treated animals at 24 and 48 hours between injections and at pregnancy days 0.5, 2.5, 4.5, 6.5, 8.5, 10.5, 12.5, 14.5, 16.5 and 18.5, respectively, following a standard procedure for facial bleed in mice (Golde et al. Lab Anim (NY) 2005 34:39-43). A lean cohort of control B6 and BALBc mice was fed with a regular 10 kcal % control chow diet containing the same protein content as the high fat diet with a total energy mass of 3.1 kcal/g (D12450Bi, Cedarlane, Ontario).

Assay [2] has as its system high fat fed female NZO mice. Description: Ovarian histology of macrolide-treated chronically high fat fed NZO mice. To be noted: chronically high fat diet fed NZO mice. The method, then:
Statistical differences between groups were measured by two-way analysis of variance (ANOVA) followed by Bonferroni post-hock t-test comparing effect of all tested macrolides on mean follicular structure counts/unit area at 95% confidence. Scale bars=200 μm for B, D, F, G, H, I, J and 50 μm for A, C, E. N=10 (HFD-NZO), 6 per treatment group. A, C and E are higher magnifications of B, D and F respectively. * denoting ovarian cyst(s).
(§1) For the comparative evaluation of other macrolide drugs to tacrolimus, mice starting at 7 weeks of age were maintained on the high fat diet for a total of 13 weeks of study period. Mice were entered into the experiments when determined to be glucose intolerant as described above. Methods of drug administration and other experimental methods were as described above.

For assay [3], the system named is NZO mice fed a high fat diet. Description: Implantation rate and resorption, comparison of macrolides. On the procedure: as §1
Peri-implantation (E4.5) and post-implantation (E6.5) pregnant and/or pseudopregnant (E4.5bid and E6.5bid) mouse uteri were prepared after mating respectively with fertile and/or vasectomized males as previously described (Herington et al. Endocrinol 2009 150: 4404-4413). The morning of vaginal plug detection was considered as gestational day 0.5 (E0.5 or Gd.0.5). An average number of twenty Concanavalin A(ConA)-coated sepharose beads (average size of 0.1 mm-diameter) (Sigma-Aldrich, Burlington, Ontario, Canada) was injected into the lumen of the left uterine horn of anesthetized animals between hours 13:00 and 16:00 on day 2.5 of pseudopregnancy according to the procedure described by Herington et al. (Endocrinol, 2009 150: 4404-4413). With the use of Ketamine/Xyalzine anesthesia and cardiac puncture, all animals were sacrificed at the age of 16-18 weeks between the morning hours 09:00-11:00. Pregnant and pseudopregnant mice were sacrificed in the morning of days 4.5 and 6.5 of their respective pregnancy. Blood samples were collected from all animals and were let stand for 1 hour at room temperature before isolation of the serum. Serum samples were stored at −80° C. until they were analyzed for their steroid hormones and lipid contents by appropriate laboratory procedures such as radio-immunoassay (RIA) all of which were conducted at the Department of Clinical Chemistry (Kingston General Hospital, Kingston, Ontario, Canada). Ovaries, oviducts and uteri were carefully dissected out of carcasses and were placed in ice-cold phosphate buffered saline (PBS)-containing petri dishes. Under a dissecting microscope, uteri were carefully isolated from their attached uterine tubes, trimmed of all mesenteric fat and were immediately weighed. The numbers of corpora lutea and implantation sites (viable and resorbed) were counted, respectively, from E4.5 and E6.5 pregnant mouse ovaries and uteri. For protein and RNA extraction, virgin uteri and segments of uterine horns containing inter-implantation sites of pregnant and pseudopregnant uteri were transected and snapped frozen in liquid nitrogen.
Examination of external morphological features of uteri of pregnant mice, including counts of implantation sites and photography was performed using a computerized dissecting microscope (Leica Diagnostic Instruments, USA) and the image acquisition and analytic software (SPOT 2.2.0). Percentage of peri-implantation embryo loss was calculated as described by Bindali and Kaliwal (Ind. Health, 2002 40:191-197), using the formula: % Preimplantation loss=[Total number of corpora lutea−Total number of implantation]/Total number of corpora lutea. Immunohistochemical localization and assessment of microscopic morphological features of implantation and inter-implantation sites in normoglycemic and diabetic NOD mice were performed on methacarn (60% methanol, 30% chloroform and 10% acetic acid)-fixed specimens. […]

Assay [4] has as its system diabetic and obese mice fed with 60% fat. Kind of assay: Serum lipid profile. To be noted: 60% fat for 12 weeks; day 4.5 post-coitum. The text has this: FIGS. 22A to 22H show results of tacrolimus restoring normal lipid profile in all treated diabetic and obese mice fed with 60% fat for 12 weeks. Normal serum levels of Triglycerides (FIG. 22A and FIG. 22B), Total Cholesterol (FIG. 22C and FIG. 22D), High-density Lipoprotein (HDL) Cholesterol (FIG. 22E and FIG. 22F) and lipid Ratio representing the overall lipid profile (FIG. 22G and FIG. 22H) were obtained after the administration of tacrolimus to the diabetic and obese mice despite their continued high fat calorie intake. Blood samples were taken at day 4.5 post-coitum and values on the Y-axis are plotted as power of 10.

Take `C=CC[C@@H]1/C=C(\C)C[C@H](C)C[C@H](OC)[C@H]2O[C@@](O)(C(=O)C(=O)N3CCCC[C@H]3C(=O)O[C@H](/C(C)=C/[C@@H]3CC[C@@H](O)[C@H](OC)C3)[C@H](C)[C@@H](O)CC1=O)[C@H](C)C[C@@H]2OC` [tacrolimus]: in assay [1] (after the initial administration, FIG. 19B), the body weight gain result is recorded as “prevented body weight gain for seven consecutive weeks”. Further, the “mass of the visceral fat” value in assay [1] (all treated mice) was “significantly lower”. For the same compound, the “follicular growth pattern in the ovaries” value in assay [2] was “restored follicular growth pattern”. In addition, the ovarian cyst formation entry in assay [2] (p<0.001) is on record as “inhibited the development of ovarian cysts”. Further, the ovarian follicular atresia result in assay [2] (vs untreated HFD-NZO) was “significantly inhibited ovarian follicular atresia (p<0.01)”. Besides, the “fertility-enhancing effect compared with the other macrolides” value in assay [3] (NZO mice, high fat diet) is given as “greater comparative effects”. In addition, the “embryonic and fetal absorption rate” value in assay [3] (same treatments, vs vehicle, p<0.05) is “significantly reduced embryonic and fetal absorption rate”. Further, the implantation rate result in assay [3] (tacrolimus 0.05 and 0.1 mg/kg, pimecrolimus 0.1 mg/kg, sirolimus 0.1 mg/kg s.c. every other day for three weeks, vs vehicle) is “significantly improved implantation rate (p<0.05)”. Moreover, in assay [4], the “lipid profile (triglycerides, total cholesterol, HDL cholesterol, lipid ratio)” value is given as “restored normal lipid profile”.

For the origin of these results see patent publication US9427433B2, “Methods and compositions for enhancing fertility and/or inhibiting pregnancy failure and restoring glucose tolerance” (Queen's University at Kingston, priority 2011, dated 2016).
